Where two headings read alike, the source gives them in different places.
Columns and labels:
[1] = tested on: Brachiaria platyphylla (BRISEB.) NASH (BRAPP); assay: Postemergence herbicidal mixtures for weed control in direct seeded rice (greenhouse, visual % injury); type: in vivo
[2] = tested on: Digitaria sanguinalis (L.) SCOP. (DIGSA); assay: as above; type: in vivo
[3] = tested on: ivy-leaved speedwell (Veronica hederifolia L; VERHE); assay: Postemergence herbicidal activity of mixtures in cereal crops (greenhouse, visual injury); type: in vivo
Method in brief: (§1)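 Injury rated visually on a 0–100% scale 20–22 days after treatment, against controls sprayed with solvent blank. Treatments were applied by track sprayer at 187 L/ha to 2nd–3rd leaf plants; compound A or B salts/esters were tested alone or mixed with another cereal herbicide. Colby's equation gave expected mixture responses.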

[4] = tested on: black mustard (Brassica nigra L; BRSNI); assay: as above; type: in vivo; conditions: Brassica, post-emergence, read-out: BRSNI Ob
Method in brief: as §1

[5] = tested on: rigid ryegrass (Lolium rigidum L; LOLRI); assay: as above; type: in vivo
Method in brief: as §1

[6] = tested on: Russian thistle (Salsola iberica L; SASKR); assay: as above; type: in vivo
Method in brief: as §1

yellow foxtail (PESGL) = assay: as above; type: in vivo, Pennisetum americanum
Procedure: Seeds of the desired test plant species were planted in Sun Gro MetroMix® 306 planting mixture, which typically has a pH of 6.0 to 6.8 and an organic matter content of about 30 percent, in plastic pots with a surface area of 103.2 square centimeters (cm^2). […] The plants were grown for 7-36 days in a greenhouse with an approximate 14 hour photoperiod which was maintained at about 18° C. during the day and 17° C. during the night. Nutrients and water were added on a regular basis and supplemental lighting was provided with overhead metal halide 1000-Watt lamps as necessary. The plants were employed for testing when they reached the second or third true leaf stage.
Treatments consisted of compound (as listed in Tables 1 through 64) and a second cereal herbicide alone and in combination. […] The concentrated stock solutions were diluted to 1.5 mg ai/mL with the addition of 2 volumes of an aqueous mixture containing acetone, water, isopropyl alcohol, DMSO, Agri-dex crop oil concentrate, and Triton® X-77 surfactant in a 64.7:26.0:6.7:2.0:0.7:0.01 v/v ratio. A dilution solution was prepared by mixing 1 volume of 97:3 v/v acetone/DMSO and 2 volumes of an aqueous mixture containing acetone, water, isopropyl alcohol, DMSO, Agri-dex crop oil concentrate, and Triton® X-77 surfactant in a 64.7:26.0:6.7:2.0:0.7:0.01 v/v ratio. Compound requirements are based upon a 12 mL application volume at a rate of 187 liters per hectare (L/ha). […] Formulated compounds were applied to the plant material with an overhead Mandel track sprayer equipped with 8002E nozzles calibrated to deliver 187 L/ha over an application area of 0.503 square meters (m^2) at a spray height of 18 inches […] above average plant canopy. Control plants were sprayed in the same manner with the solvent blank.
The treated plants and control plants were placed in a greenhouse as described above and watered by sub-irrigation to prevent wash-off of the test compounds. After 20-22 days, the condition of the test plants as compared with that of the control plants was determined visually and scored on a scale of 0 to 100 percent where 0 corresponds to no injury and 100 corresponds to complete kill.
Colby's equation was used to determine the herbicidal effects expected from the mixtures (Colby, S. R. 1967. Calculation of the synergistic and antagonistic response of herbicide combinations. Weeds 15:20-22.).
The following equation was used to calculate the expected activity of mixtures containing two active ingredients, A and B: Expected=A+B−(A×B/100)

Structure (SMILES): COC(=O)c1nc(-c2ccc(Cl)c(OC)c2F)cc(N)c1Cl [Compound A Methyl, 4-amino-3-chloro-6-(4-chloro-2-fluoro-3-methoxyphenyl)pyridine-2-carboxylic acid methyl ester]
- % Injury Ob ([1]; 4.38 g/ha alone): 60%
- % Injury Ob ([1]; 8.75 g/ha alone): 60%
- % Injury Ob ([2]; 8.75 g/ha alone): 20%
- % Injury Ob ([2]; 17.5 g/ha alone): 50%

Structure (SMILES): COc1c(Cl)ccc(-c2cc(N)c(Cl)c(C(=O)O)n2)c1F [Compound A TEA, 4-amino-3-chloro-6-(4-chloro-2-fluoro-3-methoxyphenyl)pyridine-2-carboxylic acid]
- VERHE Ob ([3]; 8.75 g/ha): 10%
- VERHE Ob ([3]; 17.5 g/ha): 20%
- VERHE Ob ([3]; 35 g/ha): 50%
- VERHE Ob ([3]; 70 g/ha): 75%
- pest or weed control at 8.75 g/ha ([4]; 8.75 g/ha alone): 70%
- pest or weed control at 8.75 g/ha ([4]; 8.75 g/ha): 70%
- pest or weed control at 17.5 g/ha ([4]; 17.5 g/ha alone): 91%
- pest or weed control at 17.5 g/ha ([4]; 17.5 g/ha): 91%
- pest or weed control at 35 g/ha ([4]; 35 g/ha alone): 98%
- pest or weed control at 35 g/ha ([4]; 35 g/ha): 98%
- pest or weed control at 70 g/ha ([4]; 70 g/ha alone): 99%
- pest or weed control at 70 g/ha ([4]; 70 g/ha): 99%
- LOLRI Ob ([5]; 35 g/ha, Table 12): 0%
- LOLRI ([5]; 35 g/ha, Table 13): 0%
- LOLRI Ob ([5]; 35 g/ha, Table 17): 0%
- LOLRI ([5]; 35 g/ha, Table 19): 0%
- LOLRI Ob ([5]; 70 g/ha, Table 12): 0%
- LOLRI ([5]; 70 g/ha, Table 13): 0%
- LOLRI Ob ([5]; 70 g/ha, Table 17): 0%
- LOLRI ([5]; 70 g/ha, Table 19): 0%
- LOLRI Ob ([5]; 140 g/ha, Table 12): 10%
- LOLRI ([5]; 140 g/ha, Table 13): 10%
- LOLRI Ob ([5]; 140 g/ha, Table 17): 10%
- LOLRI ([5]; 140 g/ha, Table 19): 10%
- SASKR Ob ([6]; 8.75 g/ha alone): 80%
- SASKR Ob ([6]; 17.5 g/ha alone): 84%
- SASKR Ob ([6]; 35 g/ha alone): 87%
- SASKR Ob ([6]; 70 g/ha alone): 93%

Structure (SMILES): COC(=O)c1nc(-c2ccc(Cl)c(OC)c2F)nc(N)c1Cl [Compound B Methyl, 6-amino-5-chloro-2-(4-chloro-2-fluoro-3-methoxyphenyl)pyrimidine-4-carboxylic acid methyl ester]
- PESGL Ob (yellow foxtail (PESGL); 8.75 g/ha): 60%
- PESGL Ob (yellow foxtail (PESGL); 17.5 g/ha): 65%
- PESGL Ob (yellow foxtail (PESGL); 35 g/ha): 65%
- PESGL Ob (yellow foxtail (PESGL); 70 g/ha): 70%
